How the values were obtained:
[1] = test system: adjuvant induced arthritis; experiment: Adjuvant induced arthritis assay in rats; assay type: in vivo, rat; conditions: 10 mg/kg orally once per day for 7 days; for Mean Paw Wt.: 6 rats; for % Anti-inflammatory Response: (control - test)/test x 100
[2] = test system: PC3, MCF7, HT29 or BRO cell lines; experiment: Anti-cancer assays, MTT viable dye method, 72 hr; assay type: cell-based; conditions: human cancer cell lines
Description: RED OIL and GOLD OIL and various thin-layer chromatographic fractions have been tested against human cancer cell lines in vitro. Materials were initially dissolved in dimethyl sulfoxide and then diluted in tissue culture media. Aliquots of 23 μg/mL were then applied to PC3 (human prostate), MCF7 (human breast adenocarcinoma), HT29 (human colon adenocarcinoma) or BRO (human melanoma) cell lines. These fractions mediated inhibition of cell growth relative to untreated control cells as assessed after 72 hr by the MTT viable dye method as is commonly used by those skilled in the arts. […] One such fraction isolated from sea cucumber lipid phase by the method of Findlay et al. (1983b), plastochromanol-8, was considered to be promising in that values of 20-50 μg/mL were determined as IC50 values (that concentration inhibiting 50% of cell growth). […] Plastochromanol-8 was also shown to be inhibitory of the 12-Lipoxygenase pathway in human platelets.

[3] = test system: leukotriene synthesis in human neutrophils; experiment: Leukotriene activation/synthesis assay in human neutrophils (method of Betts); assay type: cell-based
Description: In a leukotriene activation assay showing the effect of plastochromanol-8 on leukotriene synthesis expressed as a percentage of a methanol control in human neutrophils, by the method of Betts (1997), plastochromanol-8 inhibited activation of 5-HETE by approximately 60 percent, LTB4 by approximately 40 percent, and two of the 6-trans isomers of LTB4 (6-trans-leukotriene B4 and 6-trans-12-epileukotriene B4), by 75%. In a related assay of the effect of plastochromanol-8 on leukotriene synthesis expressed as leukotriene synthesis per 10^6 PMN, plastochromanol-8 inhibited the production of 5-HETE by approximately 75%, LTB4 by 50%, and the two trans-6 isomers of LTB4 by approximately 80%. In similar assays with human platelets, plastochromanol-8 inhibited 12-HETE synthesis by approximately 80%.

12-lipoxygenase = target: T1, 12-lipoxygenase (Homo sapiens, UniProt P18054); experiment: 12-HETE assay using human platelets; assay type: cell-based
T1 construct: assayed by the method similar to the assay for 5-lipoxygenase by using human platelets; endogenous in cells; host or cells: human platelets (mixed with polymorphonuclear leukocytes, challenged with A23187)
T1 sequence (P18054 1-663): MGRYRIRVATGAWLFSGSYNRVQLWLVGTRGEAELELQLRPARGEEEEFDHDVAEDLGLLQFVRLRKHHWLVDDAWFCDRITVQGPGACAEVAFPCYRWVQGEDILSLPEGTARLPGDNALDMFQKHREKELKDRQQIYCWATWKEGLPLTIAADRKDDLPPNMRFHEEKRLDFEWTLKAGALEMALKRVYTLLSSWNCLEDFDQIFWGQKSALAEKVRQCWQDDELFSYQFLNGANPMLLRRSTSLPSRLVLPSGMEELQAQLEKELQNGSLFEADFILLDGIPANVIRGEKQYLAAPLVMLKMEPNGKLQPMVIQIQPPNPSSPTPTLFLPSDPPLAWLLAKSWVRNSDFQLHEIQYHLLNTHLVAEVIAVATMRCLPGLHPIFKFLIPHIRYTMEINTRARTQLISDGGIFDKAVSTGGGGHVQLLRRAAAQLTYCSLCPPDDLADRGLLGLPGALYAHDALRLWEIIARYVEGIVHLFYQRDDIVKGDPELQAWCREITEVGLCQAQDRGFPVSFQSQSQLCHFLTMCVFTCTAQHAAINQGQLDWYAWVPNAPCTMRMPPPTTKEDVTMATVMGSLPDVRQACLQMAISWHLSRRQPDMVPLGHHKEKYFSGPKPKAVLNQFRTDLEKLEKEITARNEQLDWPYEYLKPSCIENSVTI
Description: RED OIL and GOLD OIL were assayed by the method similar to the assay for 5-lipoxygenase by using human platelets. Polymorphonuclear leukocytes were mixed, challenged with A23187, and 12-HETE production was measured by high pressure liquid chromatography (HPLC). Addition of a 1:10,000 dilution of RED OIL to the reaction yielded 12-HETE levels that were 65% that of methanolic controls, while A 1:1000 dilution of GOLD OIL yielded levels that were 46% of controls.

5-lipoxygenase (5-LO) = target: T2, 5-lipoxygenase (5-LO) (Homo sapiens, UniProt P09917); experiment: 5-Lipoxygenase assay in human PMNs (LTB4, isomers, 5-HETE by HPLC); assay type: cell-based; conditions: human neutrophils
T2 construct: Human PMNs isolated by standard procedures from a normal volunteer were prewarmed to 37° C; endogenous in cells; host or cells: human polymorphonuclear leukocytes (neutrophils) from a normal volunteer
T2 sequence (P09917 1-674): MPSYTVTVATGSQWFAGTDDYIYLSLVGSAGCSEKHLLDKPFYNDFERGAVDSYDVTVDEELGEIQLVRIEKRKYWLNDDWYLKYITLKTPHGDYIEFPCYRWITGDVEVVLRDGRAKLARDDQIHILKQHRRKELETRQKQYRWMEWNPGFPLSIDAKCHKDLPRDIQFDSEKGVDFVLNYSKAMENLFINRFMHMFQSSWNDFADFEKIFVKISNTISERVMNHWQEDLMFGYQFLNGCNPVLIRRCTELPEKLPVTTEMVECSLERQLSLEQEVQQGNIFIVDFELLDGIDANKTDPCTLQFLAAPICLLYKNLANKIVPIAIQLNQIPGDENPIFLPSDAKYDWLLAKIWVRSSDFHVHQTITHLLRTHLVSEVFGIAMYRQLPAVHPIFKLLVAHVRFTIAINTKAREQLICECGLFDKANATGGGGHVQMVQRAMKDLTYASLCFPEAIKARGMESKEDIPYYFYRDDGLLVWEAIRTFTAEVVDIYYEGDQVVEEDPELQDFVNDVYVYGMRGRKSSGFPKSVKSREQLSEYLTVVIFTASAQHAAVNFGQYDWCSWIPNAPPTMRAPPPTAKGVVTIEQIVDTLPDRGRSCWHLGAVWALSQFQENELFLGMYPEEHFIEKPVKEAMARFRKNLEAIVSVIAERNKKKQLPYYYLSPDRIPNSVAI
Description: 5-lipoxygenase (5-LO) is a key enzyme in the metabolism of arachidonic acid (AA) to leukotriene B4 (LTB4) and hydroxyeicosatetraenoic acid (5-HETE) it a wide variety of cells. including polymorphonuclear (PMN) leukocytes (Henderson, 1994) and has recently been linked to prostate and other cancers (Ghosh and Myers, 1997). LTB4 is a chemotaxic signaling agent involved in the migration of PMNs from the blood stream to sites of tissue injury, which is a hallmark of the inflammatory response. Human PMNs isolated by standard procedures from a normal volunteer were prewarmed to 37° C. and, at time=0, 10 μL of test compounds suspended in methanol by sonication, or methanol alone, were added to 1 mL of the PMN suspension. At t=10 min, […] of 2 mM AA were added to each suspension as the 5-LO substrate. At t=14 min, the calcium ionophore A23187 ([…], 1 mM) was added to activate the enzyme. The reaction was terminated at t=19 minutes by 100 μL of 100 mM citric acid, maintaining a pH of 3.0. Prostaglandin B2 and 15-HETE were added as internal standards for high pressure liquid chromatography (HPLC) quantification of LTB, and 5-HETE, respectively. Metabolites and standards were extracted from the suspension with chloroform/methanol (7:3). […] Metabolites were detected by ultraviolet light and quantified against standard curves. […]

[4] = leukotriene synthesis as percentage of methanol control
[5] = leukotriene synthesis per 10^6 PMN

Compound	Mean Paw Wt. [1] [gm]	% Anti-inflammatory Response [1] [%]	IC50 (concentration inhibiting 50% of cell growth) [2] [µg/mL]	inhibition of 5-HETE [3, 4]	inhibition of 6-trans-leukotriene B4 and 6-trans-12-epileukotriene B4 [3, 4] [%]	inhibition of LTB4 [3, 4]	inhibition of production of 5-HETE [3, 5]	inhibition of production of LTB4 [3, 5] [%]	inhibition of production of the two trans-6 isomers of LTB4 [3, 5]	inhibition of 12-HETE synthesis (12-lipoxygenase)	inhibition of 12-lipoxygenase pathway, in words (12-lipoxygenase)	inhibition of 5-lipoxygenase metabolite synthesis (LTB4, isomers, 5-HETE), in words (5-lipoxygenase (5-LO))
CCCCC1C(=O)N(c2ccccc2)N(c2ccccc2)C1=O [Phenylbutazone]	0.38	155.3	–	–	–	–	–	–	–	–	–	–
C[C@]12CCC(=O)C=C1CC[C@@H]1[C@@H]2[C@@H](O)C[C@@]2(C)[C@H]1CC[C@]2(O)C(=O)CO [Hydrocortisone]	0.61	59.0	–	–	–	–	–	–	–	–	–	–
CC(C)=CCC/C(C)=C/CC/C(C)=C/CC/C(C)=C/CC/C(C)=C/CC/C(C)=C/CC/C(C)=C/CC/C(C)=C/CC[C@]1(C)CCc2cc(O)c(C)c(C)c2O1 [plastochromanol-8]	–	–	20 to 50	approximately 60%	75	approximately 40%	approximately 75%	50	approximately 80%	approximately 80%	inhibitory	dramatic inhibitor

— US6399105B1, “Sea cucumber carotenoid lipid fraction products and methods of use” (priority 2000, dated 2002)
